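Method: 48-hour compound exposure of cells in 96-well plates, five concentrations, linear interpolation of endpoints. GI50 is the concentration that inhibits growth by half.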 Activity calls are given as the source filed them. Cut-off read from the data, not from the text of the source: active = GI50 up to about 1.1 µM and inactive = higher.
Tests used:
Assay in all cases: DTP human tumour cell line panel, 48 h
[1] = system: HOP-92
[2] = system: PC-3
[3] = system: 786-0
[4] = system: M14
[5] = system: MCF7
[6] = system: HOP-62
[7] = system: DU-145
[8] = system: U-251
[9] = system: OVCAR-8
[10] = system: UO-31
[11] = system: HT-29
[12] = system: NCI/ADR-RES
[13] = system: SN12C
[14] = system: NCI-H226
[15] = system: SF-268
[16] = system: SW-620
[17] = system: SF-539
[18] = system: NCI-H522
[19] = system: K562
[20] = system: SR

Row | Structure (SMILES) | GI50 [1] | GI50 [2] | GI50 [3] | GI50 [4] | GI50 [5] | GI50 [6] | GI50 [7] | GI50 [8] | GI50 [9] | GI50 [10] | GI50 [11] | GI50 [12] | GI50 [13] | GI50 [14] | GI50 [15] | GI50 [16] | GI50 [17] | GI50 [18] | GI50 [19] | GI50 [20]
1 | Cn1c(=O)c2ccccc2c2ccccc21 | 48.3 µM (inactive) | 71.6 µM (inactive) | 45.6 µM (inactive) | 49.7 µM (inactive) | 31.5 µM (inactive) | 65.8 µM (inactive) | 47.4 µM (inactive) | 57.1 µM (inactive) | 45.9 µM (inactive) | 42.4 µM (inactive) | 40.2 µM (inactive) | 37 µM (inactive) | 49.2 µM (inactive) | 32.3 µM (inactive) | 40.6 µM (inactive) | 45.2 µM (inactive) | 38 µM (inactive) | 36.6 µM (inactive) | – | –
2 | O=C1c2ccccc2C(=O)c2c(NCC3CO3)cccc21 (stereo not drawn) | 94.4 µM (inactive) | 16.9 µM (inactive) | 12.2 µM (inactive) | 11.3 µM (inactive) | 1.31 µM (inactive) | > 46.1 µM (inactive) | – | 14 µM (inactive) | 7.19 µM (inactive) | 8.05 µM (inactive) | 18.2 µM (inactive) | 9.91 µM (inactive) | 7.66 µM (inactive) | > 100 µM (inactive) | 7.5 µM (inactive) | 5.57 µM (inactive) | > 45.3 µM (inactive) | 23.2 µM (inactive) | 6.62 µM (inactive) | –
3 | COC(=O)CC1C(COC(C)=O)OC(n2cc(C)c(=O)[nH]c2=O)C1OC(C)=O (stereo not drawn) | > 100 µM (inactive) | > 100 µM (inactive) | > 100 µM (inactive) | > 100 µM (inactive) | > 100 µM (inactive) | > 100 µM (inactive) | > 100 µM (inactive) | > 100 µM (inactive) | > 100 µM (inactive) | > 100 µM (inactive) | > 100 µM (inactive) | > 100 µM (inactive) | > 100 µM (inactive) | > 100 µM (inactive) | > 100 µM (inactive) | > 100 µM (inactive) | > 100 µM (inactive) | > 100 µM (inactive) | – | –
4 | COc1ccc(C(=O)/C=C/c2ccc3c(c2)OCO3)c(OCc2ccccc2)c1 | > 78 µM (inactive) | 11.6 µM (inactive) | > 67.8 µM (inactive) | > 65.5 µM (inactive) | 6.22 µM (inactive) | > 100 µM (inactive) | > 39.2 µM (inactive) | > 57.5 µM (inactive) | 7.67 µM (inactive) | 37.2 µM (inactive) | 6.78 µM (inactive) | – | 15.9 µM (inactive) | 18.6 µM (inactive) | 6.76 µM (inactive) | 8.71 µM (inactive) | 32.7 µM (inactive) | 9.68 µM (inactive) | 12.5 µM (inactive) | 3.24 µM (inactive)
5 | Cc1csc2nc(-c3ccc(Cl)c([N+](=O)[O-])c3)c(/C=N/NC(=N)N)n12 | 0.163 µM (active) | 1.48 µM (inactive) | 1.49 µM (inactive) | 1.74 µM (inactive) | 1.26 µM (inactive) | 1.61 µM (inactive) | 2.16 µM (inactive) | 1.5 µM (inactive) | 0.406 µM (active) | 1.12 µM (inactive) | 1.77 µM (inactive) | 2.21 µM (inactive) | 1.76 µM (inactive) | 1.67 µM (inactive) | 1.71 µM (inactive) | 0.384 µM (active) | 1.61 µM (inactive) | – | – | –
6 | CC1(C)C2CC(=O)C1(C)C(O)C2Br (stereo not drawn) | > 100 µM (inactive) | > 100 µM (inactive) | > 100 µM (inactive) | > 100 µM (inactive) | > 100 µM (inactive) | > 100 µM (inactive) | > 100 µM (inactive) | > 100 µM (inactive) | > 100 µM (inactive) | > 100 µM (inactive) | > 100 µM (inactive) | > 100 µM (inactive) | > 100 µM (inactive) | > 100 µM (inactive) | > 100 µM (inactive) | > 100 µM (inactive) | > 100 µM (inactive) | – | > 100 µM (inactive) | –
7 | O=c1[nH]c(=O)n(C2CC(O)C(CO)O2)cc1/C=C/Br (stereo not drawn) | > 100 µM (inactive) | – | > 100 µM (inactive) | > 100 µM (inactive) | – | > 100 µM (inactive) | – | > 100 µM (inactive) | > 100 µM (inactive) | > 100 µM (inactive) | > 100 µM (inactive) | – | > 100 µM (inactive) | > 100 µM (inactive) | > 100 µM (inactive) | > 100 µM (inactive) | > 100 µM (inactive) | > 100 µM (inactive) | > 100 µM (inactive) | > 100 µM (inactive)
8 | C=CCCCCCCC#CCCCCCCCCCC[C@@H]1C(=O)O[C@H](C)[C@@H]1O.CCCCCCCCC#CCCCCCCCCCC[C@@H]1C(=O)O[C@H](C)[C@@H]1O | 10.5 µM (inactive) | 13.1 µM (inactive) | 15.8 µM (inactive) | 17.3 µM (inactive) | 15.4 µM (inactive) | 16 µM (inactive) | – | 18.7 µM (inactive) | 15.3 µM (inactive) | 15.6 µM (inactive) | – | 9.59 µM (inactive) | 15.3 µM (inactive) | 27.1 µM (inactive) | 13.9 µM (inactive) | 15.2 µM (inactive) | 20.8 µM (inactive) | 5.32 µM (inactive) | 6.19 µM (inactive) | –
9 | CN(C)c1ccc2c(SCC(=O)OCC(=O)[C@@]3(O)CC[C@H]4[C@@H]5CCC6=CC(=O)C=C[C@]6(C)[C@H]5C(=O)C[C@@]43C)c3ccc(N(C)C)cc3nc2c1 | 30.7 µM (inactive) | 20.8 µM (inactive) | 4.16 µM (inactive) | 27.8 µM (inactive) | 7.03 µM (inactive) | 57.9 µM (inactive) | 11.5 µM (inactive) | 15 µM (inactive) | 8.11 µM (inactive) | 10.3 µM (inactive) | 2.02 µM (inactive) | – | 7.01 µM (inactive) | 14.8 µM (inactive) | 5.82 µM (inactive) | 6.19 µM (inactive) | 6.19 µM (inactive) | 21.8 µM (inactive) | 2.64 µM (inactive) | 1.35 µM (inactive)
10 | O=c1[nH]ncc2[nH]c3c(c12)CCc1ccccc1-3 | 30.9 µM (inactive) | 27.2 µM (inactive) | 36.1 µM (inactive) | 44.3 µM (inactive) | – | 45.9 µM (inactive) | 38 µM (inactive) | 31.6 µM (inactive) | 33.6 µM (inactive) | 30.2 µM (inactive) | 29.9 µM (inactive) | 40.4 µM (inactive) | 36.5 µM (inactive) | 13.5 µM (inactive) | 32.1 µM (inactive) | 34.4 µM (inactive) | 18.5 µM (inactive) | 21.5 µM (inactive) | 28.9 µM (inactive) | 19.1 µM (inactive)
11 | CN(C)c1ccc(/C=c2/sc3nc(=O)c(-c4ccccc4NC(=O)C(F)(F)F)nn3c2=O)cc1 | 77.4 µM (inactive) | – | > 100 µM (inactive) | > 100 µM (inactive) | – | > 100 µM (inactive) | – | 53.3 µM (inactive) | > 100 µM (inactive) | 50 µM (inactive) | > 100 µM (inactive) | – | > 100 µM (inactive) | 26.4 µM (inactive) | > 100 µM (inactive) | > 100 µM (inactive) | > 100 µM (inactive) | > 100 µM (inactive) | > 100 µM (inactive) | 93.8 µM (inactive)
12 | CC1=CC=NN2C(=O)[C@H](C)C2C1 (stereo partly drawn) | > 100 µM (inactive) | – | > 100 µM (inactive) | > 100 µM (inactive) | – | > 100 µM (inactive) | – | > 100 µM (inactive) | > 100 µM (inactive) | > 100 µM (inactive) | > 100 µM (inactive) | – | > 100 µM (inactive) | > 100 µM (inactive) | > 100 µM (inactive) | > 100 µM (inactive) | > 100 µM (inactive) | > 100 µM (inactive) | > 100 µM (inactive) | > 100 µM (inactive)
13 | C/C(=N\NC(N)=S)c1ccc2c(c1)OCO2 | > 100 µM (inactive) | – | > 100 µM (inactive) | > 100 µM (inactive) | – | > 100 µM (inactive) | – | > 100 µM (inactive) | > 100 µM (inactive) | 76.2 µM (inactive) | > 100 µM (inactive) | – | > 100 µM (inactive) | > 100 µM (inactive) | > 100 µM (inactive) | > 100 µM (inactive) | > 100 µM (inactive) | 32.4 µM (inactive) | > 100 µM (inactive) | > 100 µM (inactive)
14 | C=CCOCn1ccc(=O)[nH]c1=O | – | > 100 µM (inactive) | > 100 µM (inactive) | > 100 µM (inactive) | > 100 µM (inactive) | > 100 µM (inactive) | > 100 µM (inactive) | – | > 100 µM (inactive) | > 100 µM (inactive) | > 100 µM (inactive) | – | > 100 µM (inactive) | > 100 µM (inactive) | > 100 µM (inactive) | > 100 µM (inactive) | > 100 µM (inactive) | > 100 µM (inactive) | > 100 µM (inactive) | > 100 µM (inactive)
15 | Cc1ccccc1Nc1cn(CCOc2ccccc2)c(=O)n(CCOc2ccccc2)c1=O | 19 µM (inactive) | > 100 µM (inactive) | > 100 µM (inactive) | > 100 µM (inactive) | 90.8 µM (inactive) | 24.6 µM (inactive) | > 100 µM (inactive) | > 100 µM (inactive) | – | > 100 µM (inactive) | > 100 µM (inactive) | > 100 µM (inactive) | > 100 µM (inactive) | – | > 100 µM (inactive) | > 100 µM (inactive) | – | 12.5 µM (inactive) | > 100 µM (inactive) | –
16 | CN1C(=O)C(c2c[nH]c3ccccc23)N(C)C(=O)C1c1c[nH]c2ccccc12 (stereo not drawn) | 37.2 µM (inactive) | > 100 µM (inactive) | 53.2 µM (inactive) | > 100 µM (inactive) | > 100 µM (inactive) | 63.4 µM (inactive) | > 100 µM (inactive) | > 100 µM (inactive) | > 100 µM (inactive) | > 100 µM (inactive) | > 100 µM (inactive) | > 100 µM (inactive) | > 100 µM (inactive) | – | 86.3 µM (inactive) | > 100 µM (inactive) | 86.5 µM (inactive) | > 100 µM (inactive) | > 100 µM (inactive) | –

From ChEMBL document CHEMBL1201862, “PubChem BioAssay data set” (2004)
